row,melting point,Structure (SMILES)
1,59 to 61 °C,CSCCOc1ccc(OCC(O)CO)cc1 (stereo not drawn)
2,236 to 239 °C,Cc1c(O)cnn(C(C)(C)C)c1=O
3,190 to 192 °C,COc1ccc(Sc2c(C(=O)O)[nH]c3cc(C)ccc23)cc1
4,127 to 129 °C,CCCCC1OC(=O)c2cc(NC=O)ccc21 (stereo not drawn)
5,73 to 75 °C,COc1ccc(CCOc2ccc(NC(=O)c3cc(F)cc(N4CCOCC4)c3)c3ccccc23)cc1OC
6,272 °C,Cc1cc(-c2cc(C(F)(F)F)n3ncc(C(=O)Nc4cccc(S(=O)(=O)N5CCOCC5)c4)c3n2)ccc1C(F)(F)F
7,121 to 126 °C,COc1cc(C(O)CN2CCC(C(c3ccccc3)c3ccccc3)CC2)on1 (stereo not drawn)
8,124 to 125 °C,CN1CCC(Nc2cccc(NC(=O)OC(C)(C)C)c2)CC1
9,88 °C,"O=C(CC(Cc1ccccc1)C(=O)O)c1ccc(F)cc1 (single isomer, unassigned; (+))"
10,95 to 96 °C,Cn1nc(-c2ncc(Cl)cc2F)c(Cl)c1OC(F)F
11,75 to 77 °C,CCCc1c(OCCCCSCCC(=O)O)ccc(C(C)=O)c1O
12,220 to 221 °C,Nc1cnc2c(c1)[nH]c(=O)n2-c1ccccc1F
13,173 °C,COc1ccc(C(=O)NC(C)(C#N)c2ccccn2)cc1 (stereo not drawn)
14,130 °C,CCOC(=O)c1cn2c(nc1=O)CCC2C (stereo not drawn)
15,173 to 175 °C,CC(SC(=O)c1ccccc1)C(=O)NC(Cc1ccccc1)C(=O)O (stereo not drawn)
16,150 to 155 °C,CC(C)(N)CNC(=O)CNC(=O)Cc1ccccc1
17,156 to 158 °C,Cc1cc(CCCCCOc2ccc(C(N)=S)cc2)on1
18,154 to 155 °C,CCCCOc1cc(C(=O)O)n(Cc2ccc(Cl)cc2Cl)n1
19,266 to 267 °C,COc1ccc(-c2c(Cl)c(CN3C(=O)CCC3=O)nc3sc4c(c23)CCN(C(C)=O)C4)cc1
20,197 to 198 °C,Cn1cc(C(F)(F)F)c(C(=O)O)c1Cl
21,215 to 218 °C,COCC#Cc1cc2c(O)c(C(=O)NCc3ccc(Cl)cc3)cnc2s1

row,melting point,Structure (SMILES)
1,> 220 °C,CC(C)CCC(C)NC1=NS(=O)(=O)c2cc(Cl)ccc2N1 (stereo not drawn)
2,196 to 198 °C,Cc1c(O)ccc2c(=O)c(-c3ccccc3O)coc12
3,55 to 56 °C,COc1ccc(CSC(C)(C)C2(c3ccc(F)cc3F)CO2)cc1 (stereo not drawn)
4,105 °C,CCC(CC)C(=O)OCOC(=O)C1=C(S[C@H]2CC[S@@](=O)C2)S[C@@H]2[C@@H]([C@@H](C)O)C(=O)N12
5,211 to 212 °C,COCc1[nH]c(=O)[nH]c1C(=O)c1ccc(OC)cc1
6,150 to 151 °C,COc1ccc(-c2cccc(C=CC(=O)Nc3ccc(CN4CCCCC4)cc3)c2)cc1
7,176 to 177 °C,COc1cc2nc(C)c(CO)nc2cc1OC
8,61 to 63 °C,CC(=O)N(C(=O)N(C)C)c1nnc(C(F)(F)F)s1
9,151 to 154 °C,Cc1cc(C=CC(=O)COc2ccc(CC(=O)O)cc2)cc(C)c1O
10,81 to 83 °C,CC(=O)C1COc2ccccc2C1=O (stereo not drawn)
11,156 to 162 °C,CC(C)Cc1ccc(C(C)C(=O)Oc2ccc([N+](=O)[O-])cc2)cc1 (stereo not drawn)
12,128 to 129 °C,CC(=O)OC1CCCc2cnc3ccccc3c21 (stereo not drawn)
13,192 °C,Cc1cc(C(=O)NC(=N)N)no1
14,207 to 209 °C,CC(C)(C)c1cc(-c2nn(CC(=O)N3CCOCC3)c3ncccc23)cc(C(C)(C)C)c1O
15,126 to 128 °C,CSC1C(=O)c2ccccc2N1C(=O)c1ccccc1 (stereo not drawn)
16,238 °C,CC(=O)NCC1=CC(c2ccccc2)Cc2c1ccc(O)c2O (stereo not drawn)
17,125 °C,CCCN(CCc1c[nH]c2ccc(F)cc12)C1COc2c(F)ccc(C(N)=O)c2C1 (stereo not drawn)
18,146 to 147 °C,CC1(C(=O)Nc2ccc(N3CCOC3=O)c(C(F)(F)F)c2)CC1
19,234 to 236 °C,CCOC(=O)n1[nH]c(=O)c2c([N+](=O)[O-])cccc21
20,127 to 129 °C,Cc1cnc(NS(=O)(=O)c2cccc(Cl)c2Cl)c(OCc2ccco2)n1
21,318 to 320 °C,Cn1nnnc1-c1cnc2ccccc2c1O

# The next lines start with the compound.
row,Structure (SMILES),melting point
1,COc1ccc(N2CCN(CCC3OCCc4c(Br)cccc43)CC2)cc1 (stereo not drawn),105 to 106 °C
2,O=C(C=Cc1ccccc1)Nc1ccccc1NC(=O)C=Cc1ccccc1,212 °C
3,C=C1C(=C)C2OC1C1=C2Cc2c(OC)ccc(OC)c2C1,177 to 178 °C
4,Cn1c(-c2ccc(OC3CCN(C4CCC4)CC3)cc2)nc2ncccc2c1=O,146 to 150 °C
5,CCS(=O)(=O)N(C)Cc1ccc2[nH]cc(CCCN3CCN(c4ncncc4OC)CC3)c2c1,113 to 115 °C
6,O=C(O)CCCCOC(c1ccccc1)(c1ccccc1)c1ccccc1,146 to 148 °C
7,COC(=O)C1=C2Nc3ccccc3C23CCNC3CC1 (stereo not drawn),145 to 148 °C
8,COc1ccc2c(=O)n3c(cc2c1)S(=O)(=O)CCC3,256 to 257 °C
9,O=[N+]([O-])C=C1SCCN1Cc1ccc(Cl)nc1,177 to 179 °C
10,COCCC1CCCCN1C(=O)C=Cc1c(-c2ccccc2)nn2ccccc12 (stereo not drawn),139 to 140 °C
11,CCC(CC)C(=O)C(C1CCc2ccccc2N1)N1CCN(c2cccc3[nH]ccc23)CC1 (stereo not drawn),145 to 148 °C
12,Cc1cccc(-c2nc(NC3CCCCC3)c3ccccc3n2)n1,253 to 255 °C
13,CC12CCC(=O)N1CCCN2C(=O)C(Cl)Cl (stereo not drawn),144 to 147 °C
14,O=S1(=O)CCN2C=CC(Cl)=C(c3ccc(Oc4ccccc4)cc3)C2=N1,283 to 284 °C
15,CCC1(CC)C=C(N2CCSC2=NC#N)c2cc(C#N)ccc2O1,251 to 252 °C
16,Cc1cc(C(N)=O)ncc1C(c1c(F)ccc(F)c1F)S(=O)(=O)CCC(C)(F)F (stereo not drawn),165 to 166 °C

row,Structure (SMILES),melting point
1,CS(=O)(=O)N(c1ccccc1)C1CCN(Cc2ccccc2)CC1,125 °C
2,CCCCCCCCC#Cc1ccc2nc(C=O)ccc2c1,46.5 to 47.5 °C
3,CC1CCc2c(-c3ccc([N+](=O)[O-])cc3)ccc3c(=O)c(C(=O)O)cn1c23 (stereo not drawn),> 300 °C
4,CNc1nc(C(F)(F)F)cc(=O)n1-c1c(Cl)cc(C(F)(F)F)cc1Cl,211 to 214 °C
5,O=[N+]([O-])c1cccc(OCc2ccccc2)c1[N+](=O)[O-],100 to 101 °C
6,CC1(C)CC2(CC(c3ccc(F)cc3)=C1/C=C/[C@H]1C[C@H](O)CC(=O)O1)OCCO2 (relative stereo),142 to 144 °C
7,CN1CCN(C(=O)OC2C3=C(SCCS3)C(=O)N2c2ccc3c(Cl)ccnc3n2)CC1 (stereo not drawn),240 °C
8,CCCCCCCCCCOc1ccc(-c2c(C)[nH]c(=O)n2C2CCCCC2)cc1,137 to 138 °C
9,N#Cc1cccc(C2=Nc3ccc(CCc4ccccc4)cc3NC(=O)C2)c1,212 to 214 °C
10,O=C(CCCCCCNC(=O)C(=O)c1cn2c3c(cccc13)CCC2)NO,158 to 159 °C
11,COc1cc(C=CC(=O)Nc2cnc3ccccc3c2-c2ccccc2Cl)cc(OC)c1OC(C)=O,237 to 238 °C
12,CC(C)(C)C(O)c1ccc(Oc2ccccc2)cc1 (stereo not drawn),79 to 80 °C
13,CN(C(=O)On1cccn1)c1ccccc1,63 to 67 °C
14,O=C1CCCn2c(=O)[nH]c3cccc1c32,235 °C
15,O=C(CCCCCCC(=O)N1CCN(CC(c2ccccc2)c2ccccc2)CC1)NO,117 to 118 °C

# Source: a melting point compilation (Tetko et al.; mined from patent text by program, amines drawn as free bases though some values may be those of a salt)
